According to US20150148311A1, “NON-SYSTEMIC TGR5 AGONISTS” (Ardelyx, Inc., priority 2011, published 2015):
Read-outs that look alike come from different tables or passages of the source.

How the values were obtained:
[1] = Compound concentration in gall bladder, LC-MS/MS, 8 h post dose; format: in vivo; conditions: 30 mg/kg; for Number of Mice with Gallbladder Concentration < LLOQ: mice below LLOQ / mice in group; for concentration at 8 h: male, C57BL/6, mouse, with contents, mice, gallbladder homogenate, read-out: Mean Example Gallbladder Concentration
Protocol: (§1) Eight hours later, each mouse was heavily anesthetized with isoflurane, the peritoneal cavity was opened and the gallbladder, with its entire contents, was carefully excised and weighed. Blood was collected from the left ventricle of the heart and processed to plasma in EDTA-coated tubes containing aprotinin and DPPIV inhibitor for measurement of total GLP-1 (K150FCC; Meso Scales Discovery, Gaithersburg Md.).
Compound concentrations in the gall bladder were determined as follows: each mouse was heavily anesthetized with isoflurane, the peritoneal cavity was opened and the gallbladder, with its entire contents, was carefully excised. After harvest, gall bladders were homogenized in 100 μL water using a micro-homogenizer. Samples of homogenate were diluted 1:5 in water and precipitated with three volumes of neat acetonitrile. After centrifugation, supernatants were analyzed by LC-MS/MS. The level of test compound present in gall bladder samples was interpolated from a standard curve for each individual compound prepared in a matrix of gallbladder homogenate from vehicle treated animals.

human TGR5 = molecular target: T1, human TGR5 (Homo sapiens, UniProt Q8TDU6); test: Cell-based TGR5 assay, HEK293 cells stably expressing human TGR5, cAMP by HTRF; conditions: 0.05 nM to 10 μM
T1 construct: expressed in transfected cells
T1 sequence (Q8TDU6 1-330): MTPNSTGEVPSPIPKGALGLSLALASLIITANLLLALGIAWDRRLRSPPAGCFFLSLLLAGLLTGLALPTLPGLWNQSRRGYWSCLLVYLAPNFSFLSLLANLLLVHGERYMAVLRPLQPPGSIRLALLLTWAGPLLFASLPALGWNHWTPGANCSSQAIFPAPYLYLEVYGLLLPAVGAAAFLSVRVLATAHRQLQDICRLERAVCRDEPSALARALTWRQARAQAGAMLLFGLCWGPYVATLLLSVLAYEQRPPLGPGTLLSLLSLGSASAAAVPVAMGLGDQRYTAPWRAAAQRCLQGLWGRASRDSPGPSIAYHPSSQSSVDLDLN
Procedure, shortened: (§2)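 cAMP HTRF read-out, converted to concentration via standard curve, after a 30 min, 37 °C compound exposure in HBSS with 10 mM HEPES pH 7.4 and 0.5 mM IBMX, compounds serially diluted 3-fold from 10 mM DMSO stock then 100-fold. Cells: stable human TGR5 HEK293, or NCI-H716 expressing TGR5 endogenously.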

[2] = molecular target: T2, endogenously expressed TGR5 in NCI H716 (Homo sapiens, UniProt Q8TDU6); test: Cell-based TGR5 assay, NCI-H716 cells endogenously expressing human TGR5, cAMP by HTRF; conditions: 30 min at 37 C, 22 nM to 50 μM, read-out: pEC50 endogenously expressed TGR5 in NCI H716 (converted)
T2 construct: human caecum carcinoma cell line NCI-H716 which endogenously expresses human TGR5; endogenous in cells; host or cells: NCI-H716
T2 sequence (Q8TDU6 1-330): T1 sequence (Q8TDU6 1-330)
Procedure, shortened: as §2

total GLP-1 = test: In vivo GLP-1 secretion, plasma total GLP-1 8 h post dose; conditions: Mus musculus, C57BL/6 male mice, food removed, plasma total GLP-1 eight hours after dosing, read-out: GLP-1 fold change over vehicle, Mean
Description: as §1

C57BL/6 male mice = test: In vivo gallbladder measurement (weight) 8 h post dose; conditions: 30 mg/kg; for Gallbladder weight/body weight fold change over vehicle, Significance: 8 h, vs. vehicle, one-way ANOVA, Dunnett's test; for Gallbladder weight/body weight fold change over vehicle, Mean: food removed, eight hours after dosing
Description: as §1

[3] = Compound plasma concentration, LC-MS/MS, 8 h post dose; format: in vivo; conditions: 30 mg/kg; for Number of Mice with Plasma Concentration < LLOQ: mice below LLOQ / mice in group; for concentration at 8 h: male, C57BL/6, mouse, mice, plasma, read-out: Mean Example Plasma Concentration
Protocol: as §1
Plasma samples were treated with acetonitrile containing an internal standard, precipitated proteins removed by centrifugation. Supernatants were analyzed by LC-MS/MS and compound concentrations were determined by interpolated from a standard curve prepared in plasma.

human IBAT = molecular target: T3, human IBAT (Homo sapiens, UniProt Q12908); test: IBAT counter screen, [3H]taurocholic acid uptake in IBAT-transfected HEK293 cells; format: cell-based
T3 construct: expressed in transfected cells; host or cells: HEK293
T3 sequence (Q12908 1-348): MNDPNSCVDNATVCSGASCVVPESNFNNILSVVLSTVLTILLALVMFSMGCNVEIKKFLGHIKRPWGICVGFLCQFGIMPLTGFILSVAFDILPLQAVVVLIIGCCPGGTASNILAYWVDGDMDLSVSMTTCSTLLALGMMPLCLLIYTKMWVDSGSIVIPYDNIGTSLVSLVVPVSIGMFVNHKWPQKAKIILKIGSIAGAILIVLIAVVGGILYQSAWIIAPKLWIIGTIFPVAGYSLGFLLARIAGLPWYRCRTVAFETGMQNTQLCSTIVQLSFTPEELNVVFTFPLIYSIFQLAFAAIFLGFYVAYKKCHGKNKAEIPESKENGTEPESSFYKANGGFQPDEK
Protocol: Following a 40-min incubation, the solution was removed, and the cells were washed twice with uptake buffer. Cells were lysed by addition of 20 μL 0.1% Tween 80 followed by 100 μL scintillation fluid and counted using a TopCount (Perkin Elmer).

[4] = HEK293 cells stably expressing human TGR5, 30 min at 37 C, read-out: pEC50 Human TGR5 (converted)
[5] = read-out: pEC50 human IBAT (converted)
[6] = pEC50 Human TGR5, HEK293 cells stably expressing human TGR5, 30 min at 37 C

| Number of Mice with Gallbladder Concentration < LLOQ [1] | concentration at 8 h [1] | EC50 (human TGR5; [4]) | EC50 [2] | Number of Mice with Plasma Concentration < LLOQ [3] | concentration at 8 h [3] | EC50 (human IBAT; [5]) | EC50 (human TGR5; [6]) | SMILES | response vs control in vivo at 30 mg/kg (total GLP-1) | Gallbladder weight/body weight fold change over vehicle, Significance (C57BL/6 male mice) | Gallbladder weight/body weight fold change over vehicle, Mean (C57BL/6 male mice) | EC50 (human IBAT) |
| --- | --- | --- | --- | --- | --- | --- | --- | --- | --- | --- | --- | --- |
| 0/8 | 600 nM | < 100 nM |  | 2/8 | 2.2 ng/mL |  |  | O=C(N1CCN(C2CC2)c2ccccc21)C1(NCc2cc(Cl)c(O)cc2Cl)CC1 [Example 165, (4-Cyclopropyl-3,4-dihydroquinoxalin-1(2H)-yl)(1-((2,5-dichloro-4-hydroxybenzyl)amino)cyclopropyl)methanone] | 120% | n.s. | 1.5 fold change over vehicle |  |
| 8/8 | < 12 nM | < 100 nM |  | 2/8 | 1.4 ng/mL |  |  | O=C(OC1(C(=O)N2CCN(C3CC3)c3ccccc32)CC1)c1cc(Cl)ccc1Cl [Example 166, 1-(4-cyclopropyl-1,2,3,4-tetrahydroquinoxaline-1-carbonyl)cyclopropyl 2,5-dichlorobenzoate] | 150% | n.s. | 1.2 fold change over vehicle |  |
| 0/8 | 1300 nM |  |  | 0/8 | 3.6 ng/mL | > 25100 nM |  | O=C(NCCCCCc1cc(Cl)c(CN2CSC[C@H]2C(=O)N2CCN(C3CC3)c3ccccc32)cc1Cl)NC(CO)(CO)CO [Example 198] |  | * (* p < 0.05 vs. vehicle; One-way ANOVA followed by Dunnett's test) | 1.9 fold change over vehicle |  |
| 0/8 | 600 nM |  |  | 8/8 | < 0.5 ng/mL | > 25100 nM | < 100 nM | O=C(O)CNC(=O)CNC(=O)CNC(=O)CCCCc1cc(Cl)c(CN2CSC[C@H]2C(=O)N2CCN(C3CC3)c3ccccc32)cc1Cl [Example 228] |  |  |  |  |
| 0/8 | 4400 nM |  |  | 3/8 | 1.2 ng/mL | > 25100 nM |  | CN(C[C@H](O)[C@@H](O)[C@H](O)[C@H](O)CO)C(=O)CCCCc1cc(Cl)c(CN2CSC[C@H]2C(=O)N2CCN(C3CC3)c3ccccc32)cc1Cl [Example 238] |  |  |  |  |
| 0/8 | 3920 nM |  |  | 0/8 | 28.1 ng/mL | > 25100 nM | < 100 nM | O=C(CCCCc1cc(Cl)c(CN2CSC[C@H]2C(=O)N2CCN(C3CC3)c3ccccc32)cc1Cl)N[C@@H](C(=O)O)[C@@H](O)[C@H](O)[C@H](O)CO [Example 240] |  |  |  |  |
| 0/8 | 100 nM | < 100 nM |  | 6/8 | 1.1 ng/mL |  |  | CN(C(=O)C1(OCc2cc(Cl)c(CCCCC(=O)NC[C@H](O)[C@@H](O)[C@H](O)[C@H](O)CO)cc2Cl)CC1)c1ccccc1OC1CC1 [Example 259] | 140% | n.s. | 0.9 fold change over vehicle |  |

The remaining lines, values behind:

| SMILES | Number of Mice with Gallbladder Concentration < LLOQ [1] | concentration at 8 h [1] | EC50 (human TGR5; [4]) | EC50 [2] | Number of Mice with Plasma Concentration < LLOQ [3] | concentration at 8 h [3] | EC50 (human IBAT; [5]) | EC50 (human TGR5; [6]) | response vs control in vivo at 30 mg/kg (total GLP-1) | Gallbladder weight/body weight fold change over vehicle, Significance (C57BL/6 male mice) | Gallbladder weight/body weight fold change over vehicle, Mean (C57BL/6 male mice) | EC50 (human IBAT) |
| --- | --- | --- | --- | --- | --- | --- | --- | --- | --- | --- | --- | --- |
| CN(C(=O)C1(OCc2cc(Cl)c(CCCNC(=O)NC[C@H](O)[C@@H](O)[C@H](O)[C@H](O)CO)cc2Cl)CC1)c1ccccc1OC1CC1 [Example 96, N-(2-cyclopropoxyphenyl)-1-(2,5-dichloro-4-(3-(3-((2S,3R,4R,5R)-2,3,4,5,6-pentahydroxyhexyl)ureido)propyl)benzyloxy)-N-methylcyclopropanecarboxamide] | 0/8 | 1340 nM | < 100 nM | < 100 nM | 8/8 | < 2 ng/mL |  |  | 190% | n.s. | 0.8 fold change over vehicle |  |
| O=C(N1CCN(C2CC2)c2ccccc21)C1(NCc2cc(Cl)cc(O)c2Cl)CC1 [Example 167, (4-cyclopropyl-3,4-dihydroquinoxalin-1(2H)-yl)(1-((2,5-dichloro-3-hydroxybenzyl)amino)cyclopropyl)methanone] | 0/8 | 3300 nM | 126 to 1000 nM |  | 5/8 | 2.3 ng/mL |  |  | 130% | n.s. | 1.3 fold change over vehicle |  |
| O=C([C@@H]1CSCN1Cc1cc(Cl)cc(O)c1Cl)N1CCN(C2CC2)c2ccccc21 [Example 169, (R)-(4-cyclopropyl-3,4-dihydroquinoxalin-1(2H)-yl)(3-(2,5-dichloro-3-hydroxybenzyl)thiazolidin-4-yl)methanone] | 0/8 | 1200 nM | < 100 nM |  | 4/8 | 2.1 ng/mL |  |  | 150% |  | 1.9 fold change over vehicle |  |
| Cn1c(C(=O)NC[C@H](O)[C@@H](O)[C@H](O)[C@H](O)CO)cnc1SCc1cc(Cl)c(CN2CSC[C@H]2C(=O)N2CCN(C3CC3)c3ccccc32)cc1Cl [Example 175, 2-((2,5-dichloro-4-(((R)-4-(4-cyclopropyl-1,2,3,4-tetrahydroquinoxaline-1-carbonyl)thiazolidin-3-yl)methyl)benzyl)thio)-1-methyl-N-((2S,3R,4R,5R)-2,3,4,5,6-pentahydroxyhexyl)-1H-imidazole-5-carboxamide] | 0/8 |  |  |  | 7/8 |  | > 25100 nM |  |  |  |  |  |
| O=C(O)CNC(=O)[C@H](CSSC[C@H](NC(=O)CC[C@H](NC(=O)CCCCc1cc(Cl)c(CN2CSC[C@H]2C(=O)N2CCN(C3CC3)c3ccccc32)cc1Cl)C(=O)O)C(=O)NCC(=O)O)NC(=O)CC[C@H](NC(=O)CCCCc1cc(Cl)c(CN2CSC[C@H]2C(=O)N2CCN(C3CC3)c3ccccc32)cc1Cl)C(=O)O [Example 241] | 8/8 | < 60 nM |  |  | 8/8 | < 10 ng/mL |  | < 100 nM |  |  |  | > 25100 nM |
| CN(C(=O)C1(OCc2cc(Cl)c(CCCCCNC(=O)NC[C@H](O)[C@@H](O)[C@H](O)[C@H](O)CO)cc2Cl)CC1)c1ccccc1OC1CC1 [Example 258] | 0/8 | 700 nM | < 100 nM |  | 7/8 | 9.4 ng/mL |  |  | 110% | n.s. | 1.1 fold change over vehicle |  |
